Assay [1] addresses T1, Serine/threonine-protein kinase D1 (Homo sapiens) (UniProt Q15139).
T1 sequence (whole entry): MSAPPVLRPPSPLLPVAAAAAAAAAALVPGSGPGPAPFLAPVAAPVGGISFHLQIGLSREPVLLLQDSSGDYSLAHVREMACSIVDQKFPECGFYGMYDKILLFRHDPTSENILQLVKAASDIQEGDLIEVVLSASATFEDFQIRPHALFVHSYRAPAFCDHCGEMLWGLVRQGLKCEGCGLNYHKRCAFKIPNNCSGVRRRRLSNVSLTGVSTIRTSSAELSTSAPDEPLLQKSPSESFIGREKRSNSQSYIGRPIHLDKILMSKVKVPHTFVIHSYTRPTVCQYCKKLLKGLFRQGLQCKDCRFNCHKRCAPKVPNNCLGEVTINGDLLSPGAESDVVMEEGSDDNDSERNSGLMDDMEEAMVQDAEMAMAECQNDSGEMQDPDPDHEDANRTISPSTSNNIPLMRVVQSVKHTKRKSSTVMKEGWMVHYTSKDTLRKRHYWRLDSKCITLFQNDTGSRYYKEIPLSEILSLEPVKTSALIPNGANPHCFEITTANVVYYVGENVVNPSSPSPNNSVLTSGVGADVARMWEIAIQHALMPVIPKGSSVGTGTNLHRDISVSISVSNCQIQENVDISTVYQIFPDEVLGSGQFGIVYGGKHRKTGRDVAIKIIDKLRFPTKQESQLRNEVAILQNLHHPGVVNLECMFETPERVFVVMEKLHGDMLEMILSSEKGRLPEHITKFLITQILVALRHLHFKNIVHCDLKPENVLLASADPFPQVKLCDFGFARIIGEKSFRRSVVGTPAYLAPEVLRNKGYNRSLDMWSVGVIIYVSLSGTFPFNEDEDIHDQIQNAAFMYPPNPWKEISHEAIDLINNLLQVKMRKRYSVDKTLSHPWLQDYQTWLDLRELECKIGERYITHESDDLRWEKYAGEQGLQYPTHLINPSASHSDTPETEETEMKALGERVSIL
As to the kind of experiment: Selectivity interaction (Kinase panel (Z-LYTE Assay)) EUB0001632a PRKD1. The note with it: at 10 µM.

Assay [2] has as its target Mitogen-activated protein kinase 11 (Homo sapiens) (UniProt Q15759). The assay is described as follows: Selectivity interaction (KinomeScan (DiscoverX)) EUB0000595a MAPK11. The note with it: at 10 µM.
Assay [3] deals with Serine/threonine-protein kinase PAK 6 (Homo sapiens) (UniProt Q9NQU5). The assay is described as follows: Selectivity interaction (SelectScreen profiling (Invitrogen)) EUB0000607a PAK6. Particulars: at 2 µM.
In assay [4] the target is T2, Serine/threonine-protein kinase tousled-like 1 (Homo sapiens) (UniProt Q9UKI8).
T2 sequence (whole entry): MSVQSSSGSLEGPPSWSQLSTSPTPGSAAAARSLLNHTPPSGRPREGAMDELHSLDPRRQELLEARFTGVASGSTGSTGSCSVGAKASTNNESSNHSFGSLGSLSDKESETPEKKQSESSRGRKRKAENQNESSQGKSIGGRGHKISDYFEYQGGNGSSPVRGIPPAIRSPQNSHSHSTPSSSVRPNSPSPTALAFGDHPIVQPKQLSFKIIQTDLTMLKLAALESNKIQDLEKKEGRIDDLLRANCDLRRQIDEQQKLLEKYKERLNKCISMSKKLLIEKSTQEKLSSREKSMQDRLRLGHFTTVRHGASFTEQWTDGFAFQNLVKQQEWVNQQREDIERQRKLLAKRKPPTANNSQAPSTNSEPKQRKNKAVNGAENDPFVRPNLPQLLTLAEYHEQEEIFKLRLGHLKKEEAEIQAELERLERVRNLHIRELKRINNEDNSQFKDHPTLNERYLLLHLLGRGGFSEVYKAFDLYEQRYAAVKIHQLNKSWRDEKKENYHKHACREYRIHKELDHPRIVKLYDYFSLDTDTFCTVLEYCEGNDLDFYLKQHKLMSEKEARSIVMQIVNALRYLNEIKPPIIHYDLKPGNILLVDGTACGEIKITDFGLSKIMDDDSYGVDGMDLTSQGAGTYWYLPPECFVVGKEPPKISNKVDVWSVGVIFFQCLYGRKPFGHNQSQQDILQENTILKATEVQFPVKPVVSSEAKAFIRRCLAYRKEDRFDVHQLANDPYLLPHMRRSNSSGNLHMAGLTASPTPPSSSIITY
The note with it: at 10 µM.

For assay [5], the target named is T3, Scaffold protein ILK (Homo sapiens) (UniProt Q13418).
T3 sequence (whole entry): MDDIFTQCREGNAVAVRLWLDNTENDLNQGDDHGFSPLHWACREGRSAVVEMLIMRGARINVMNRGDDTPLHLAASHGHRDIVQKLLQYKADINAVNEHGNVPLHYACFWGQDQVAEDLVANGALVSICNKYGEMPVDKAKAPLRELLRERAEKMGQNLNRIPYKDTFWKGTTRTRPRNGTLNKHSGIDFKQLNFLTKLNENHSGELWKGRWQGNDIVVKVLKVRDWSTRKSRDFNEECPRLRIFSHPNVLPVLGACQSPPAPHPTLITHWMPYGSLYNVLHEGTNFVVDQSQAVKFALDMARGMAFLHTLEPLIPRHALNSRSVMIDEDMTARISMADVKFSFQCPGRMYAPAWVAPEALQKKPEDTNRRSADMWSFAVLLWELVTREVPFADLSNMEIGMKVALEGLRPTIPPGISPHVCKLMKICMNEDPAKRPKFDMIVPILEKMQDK
The assay is described as follows: Selectivity interaction (ActivX KiNativ screen (kinase selectivity in THP-1 cell lysates)) EUB0000639a ILK. In kind it is subcellular. The note with it: lysate, at 0.04 µM.

For assay [6], the target named is Serine/threonine-protein kinase RIO2 (Homo sapiens) (UniProt Q9BVS4). As to the kind of experiment: Selectivity interaction (KinomeScan (DiscoverX)) EUB0000092b RIOK2. Particulars: at 10 µM.
Assay [7] has as its target 5-hydroxytryptamine receptor 2A (Homo sapiens, UniProt P28223). As to the kind of experiment: Selectivity interaction (Panel of non-epigenetic targets (kinases, GPCRs, ion channels, and transporters, Eurofins) ) EUB0000271b HTR2A. The note with it: at 1 µM.
Assay [8] deals with T4, Aurora kinase A (Homo sapiens) (UniProt O14965).
T4 sequence (whole entry): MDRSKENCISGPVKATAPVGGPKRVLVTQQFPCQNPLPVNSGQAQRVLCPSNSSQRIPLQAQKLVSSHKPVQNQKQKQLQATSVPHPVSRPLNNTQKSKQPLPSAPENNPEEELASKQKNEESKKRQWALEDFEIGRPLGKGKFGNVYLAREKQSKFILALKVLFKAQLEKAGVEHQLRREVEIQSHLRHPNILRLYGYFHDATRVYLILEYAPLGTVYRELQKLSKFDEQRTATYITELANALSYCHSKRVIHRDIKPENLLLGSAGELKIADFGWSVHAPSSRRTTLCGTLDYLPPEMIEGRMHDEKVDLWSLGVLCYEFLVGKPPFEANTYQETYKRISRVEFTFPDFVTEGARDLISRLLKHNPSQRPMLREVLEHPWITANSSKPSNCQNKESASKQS
As to the kind of experiment: Selectivity interaction (Kinase panel (KiNativ target engagement assay in Jurkat cells)) EUB0001635a STK6. The note with it: at 1 µM. In kind it is cell-based.

Chain of Serine/threonine-protein kinase RIO2 (Homo sapiens) (Q9BVS4 whole entry, looked up): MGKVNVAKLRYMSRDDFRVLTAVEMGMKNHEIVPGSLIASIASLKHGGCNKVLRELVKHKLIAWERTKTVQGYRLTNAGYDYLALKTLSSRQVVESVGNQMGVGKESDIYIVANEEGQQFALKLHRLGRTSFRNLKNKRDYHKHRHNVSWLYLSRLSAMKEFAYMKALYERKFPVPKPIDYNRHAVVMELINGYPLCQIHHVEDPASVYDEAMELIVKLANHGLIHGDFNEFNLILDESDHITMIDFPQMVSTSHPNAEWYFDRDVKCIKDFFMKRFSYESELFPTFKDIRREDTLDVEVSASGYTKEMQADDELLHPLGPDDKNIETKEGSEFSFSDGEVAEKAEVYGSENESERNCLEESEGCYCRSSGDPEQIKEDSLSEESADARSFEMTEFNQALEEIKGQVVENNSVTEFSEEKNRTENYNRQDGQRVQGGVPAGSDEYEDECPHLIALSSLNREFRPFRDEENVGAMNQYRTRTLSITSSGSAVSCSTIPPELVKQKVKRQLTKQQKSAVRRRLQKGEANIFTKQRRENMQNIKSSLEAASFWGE
Chain of 5-hydroxytryptamine receptor 2A (P28223 whole entry): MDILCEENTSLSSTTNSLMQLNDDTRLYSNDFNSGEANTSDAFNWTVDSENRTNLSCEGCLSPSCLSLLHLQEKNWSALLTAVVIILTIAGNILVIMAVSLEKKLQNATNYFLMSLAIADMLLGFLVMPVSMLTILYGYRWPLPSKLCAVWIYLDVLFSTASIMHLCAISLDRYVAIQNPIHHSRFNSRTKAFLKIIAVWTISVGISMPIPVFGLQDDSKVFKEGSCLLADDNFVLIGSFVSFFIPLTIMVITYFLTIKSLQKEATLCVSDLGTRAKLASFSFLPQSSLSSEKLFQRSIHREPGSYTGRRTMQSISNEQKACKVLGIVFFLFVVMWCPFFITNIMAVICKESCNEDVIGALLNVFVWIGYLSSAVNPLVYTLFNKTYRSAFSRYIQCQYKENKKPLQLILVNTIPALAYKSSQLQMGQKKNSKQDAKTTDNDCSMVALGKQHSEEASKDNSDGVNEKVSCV
Chain of Serine/threonine-protein kinase PAK 6 (Homo sapiens) (Q9NQU5 whole entry, looked up): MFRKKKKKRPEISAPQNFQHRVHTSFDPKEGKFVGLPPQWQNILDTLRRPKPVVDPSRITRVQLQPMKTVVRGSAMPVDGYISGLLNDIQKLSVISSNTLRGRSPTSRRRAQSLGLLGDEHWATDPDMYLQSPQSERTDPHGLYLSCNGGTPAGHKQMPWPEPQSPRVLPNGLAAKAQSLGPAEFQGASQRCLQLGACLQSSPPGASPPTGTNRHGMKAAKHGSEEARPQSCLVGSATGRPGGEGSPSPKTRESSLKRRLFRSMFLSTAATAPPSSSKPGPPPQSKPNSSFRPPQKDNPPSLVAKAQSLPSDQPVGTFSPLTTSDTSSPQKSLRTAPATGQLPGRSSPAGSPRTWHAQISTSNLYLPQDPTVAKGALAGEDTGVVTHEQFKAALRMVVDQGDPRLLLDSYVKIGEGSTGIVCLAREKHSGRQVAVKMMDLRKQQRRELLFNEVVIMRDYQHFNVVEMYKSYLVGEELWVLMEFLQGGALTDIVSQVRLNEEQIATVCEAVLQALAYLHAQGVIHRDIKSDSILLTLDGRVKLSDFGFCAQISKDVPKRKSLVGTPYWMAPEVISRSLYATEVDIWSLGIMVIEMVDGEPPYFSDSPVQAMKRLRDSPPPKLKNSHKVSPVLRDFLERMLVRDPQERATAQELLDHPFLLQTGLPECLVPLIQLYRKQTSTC
Chain of Mitogen-activated protein kinase 11 (Homo sapiens) (Q15759 whole entry): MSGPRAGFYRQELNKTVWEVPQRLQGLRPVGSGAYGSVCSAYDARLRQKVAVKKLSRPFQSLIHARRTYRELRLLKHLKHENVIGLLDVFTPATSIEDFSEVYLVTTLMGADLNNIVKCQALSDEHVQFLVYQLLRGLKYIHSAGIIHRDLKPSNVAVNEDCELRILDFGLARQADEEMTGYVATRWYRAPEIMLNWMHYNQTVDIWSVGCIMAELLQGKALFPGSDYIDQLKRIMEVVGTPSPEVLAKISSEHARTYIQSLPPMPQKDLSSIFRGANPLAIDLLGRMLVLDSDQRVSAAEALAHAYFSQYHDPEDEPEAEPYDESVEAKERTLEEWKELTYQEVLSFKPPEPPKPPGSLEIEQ

Consider `Cn1cc(-n2cnc3c(NCc4nc5cc(Cl)c(Cl)cc5[nH]4)nc(N4CCOCC4)nc32)cn1`, for which, in assay [1], the % of control was 3.91%.
Regarding `COCC(=O)NC/C=C/c1ccc2ncnc(Nc3ccc(Oc4ccc(C)nc4)c(C)c3)c2c1` [CP-724714], in assay [2], the % of control stood at 100%.
As to `CNC(=O)Nc1ccc(-c2nc(N3CC4CCC(C3)O4)c3cnn(C4CCC5(CC4)OCCO5)c3n2)cc1`, in assay [3], the % of inhibition is 9%.
In assay [4], `Cc1cc([C@@H](C)Nc2ccccc2C(=O)O)c2nc(N3CCOCC3)cc(=O)n2c1` [AZD-6482] returned a % of control of 96%.
For `CC[C@@H]1[C@H](F)C(=O)N[C@@H]1COc1nccc2cc(C(N)=O)c(OC)cc12` [ZIMLOVISERTIB], the % of inhibition in assay [5] was -18.4%.
`CCC(=O)N1CCN(c2ccc(-n3c(=O)ccc4cnc5ccc(-c6cnc7ccccc7c6)cc5c43)cc2C(F)(F)F)CC1` yielded a % of control in assay [6] of 24%.
As for `Cc1cc(C)cc([C@@H]2c3cc(C)ccc3NC(=O)CN2C(=O)c2ccc(Br)s2)c1`, the % of inhibition in assay [7] was found to be 12%.
`C=CC(=O)Nc1ccc(C(=O)Nc2[nH]nc3c2CN(C(=O)N[C@H](CN(C)C)c2ccccc2)C3(C)C)cc1` registered a % of engagement in assay [8] of 14.1%.

The record behind these values is ChEMBL document CHEMBL5465560, “Selectivity Literature for EUbOPEN Chemogenomic Library” (2024).
